Like-named read-outs stand apart in the source and are kept apart here.
Tests used:
human JAK3 = target: T1, human JAK3 (Homo sapiens, UniProt P52333); assay: JAK3 inhibition assay; format: biochemical; settings: recombinant human JAK3 catalytic domain; polyGT substrate
T1 construct: catalytic domain (amino acids 781-1124; catalog number PV3855); purchased Invitrogen PV3855
Outline: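 Radiometric kinase assay: 0.5 ng JAK3 with 2.5 μg polyGT in Tris pH 7.5/MgCl2 buffer, 1 μM ATP plus 0.25 μCi 33P-γ-ATP, 1% DMSO, 45 min at 30 °C, stopped with phosphoric acid.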

[1] = test system: pSTAT1(2)-luciferase reporter in HeLa cells triggered with human OSM; assay: JAK-STAT signalling assay; format: cell-based; settings: read-out: JAK-STAT IC50
Outline: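 HeLa cells transiently co-transfected with pSTAT1(2)-luciferase and LacZ control reporter, preincubated with compound 60 min, then stimulated with human OSM (33 ng/mL final) overnight at 37 °C. Luciferase read by luminescence; percent inhibition from vehicle and no-trigger controls, EC50 from dose-response.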

human JAK1 = target: T2, human JAK1 (Homo sapiens, UniProt P23458); assay: JAK1 inhibition assay (polyGT substrate / Ulight-JAK1 peptide); format: biochemical; settings: recombinant human JAK1 catalytic domain; polyGT or Ulight-JAK1 peptide assay
T2 construct: catalytic domain, amino acids 866-1154; catalog number PV4774; purchased Invitrogen PV4774
T2 sequence (P23458 866-1154): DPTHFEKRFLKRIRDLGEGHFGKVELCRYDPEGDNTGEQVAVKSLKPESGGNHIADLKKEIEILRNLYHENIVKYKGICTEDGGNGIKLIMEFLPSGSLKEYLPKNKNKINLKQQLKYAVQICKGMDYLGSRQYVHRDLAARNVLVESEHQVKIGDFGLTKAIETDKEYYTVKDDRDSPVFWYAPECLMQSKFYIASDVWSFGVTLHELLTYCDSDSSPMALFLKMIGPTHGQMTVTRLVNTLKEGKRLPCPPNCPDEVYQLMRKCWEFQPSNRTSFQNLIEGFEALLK
Outline: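 Two formats. PolyGT radiometric: 45 min at 30 °C, stopped with phosphoric acid, counted as cpm. Ulight-JAK1 peptide: 60 min at room temperature, stopped with Eu-anti-phosphotyrosine/EDTA, read as RFU. Percent inhibition normalised to vehicle and 10 μM staurosporine.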

[2] = Homo sapiens, HeLa, HeLa cells, pSTAT1(2)-luciferase reporter, human OSM 33 ng/mL
[3] = HeLa cells, pSTAT1(2)-luciferase reporter, human OSM 33 ng/mL

T1 sequence (P52333 781-1124): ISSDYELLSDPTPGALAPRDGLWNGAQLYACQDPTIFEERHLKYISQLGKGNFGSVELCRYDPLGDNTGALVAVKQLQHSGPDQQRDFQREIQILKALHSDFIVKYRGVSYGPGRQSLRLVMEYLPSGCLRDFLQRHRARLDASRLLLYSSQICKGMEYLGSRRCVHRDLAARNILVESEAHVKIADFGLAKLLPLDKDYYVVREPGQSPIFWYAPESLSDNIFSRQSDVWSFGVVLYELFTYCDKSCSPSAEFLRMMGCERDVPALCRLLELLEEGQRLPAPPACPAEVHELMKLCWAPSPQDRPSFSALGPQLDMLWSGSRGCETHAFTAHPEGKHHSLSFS

SMILES: CN(c1ccc(O)cc1)c1cc2c(cn1)ncn2C [Compound 17, 4-(methyl(1-methyl-1H-imidazo[4,5-c]pyridin-6-yl)amino)phenol]
- IC50 (human JAK3): > 1000 nM
- IC50 [1, 2]: > 1000 nM
- IC50 (human JAK1): 0.01 to 100 nM

SMILES: CN(c1ccc(CC#N)cc1)c1cc2c(cn1)ncn2C [Compound 26, 2-(4-(Methyl(1-methyl-1H-imidazo[4,5-c]pyridin-6-yl)amino)phenyl)acetonitrile]
- IC50 (human JAK3): > 1000 nM
- IC50 [1, 2]: > 1000 nM
- IC50 (human JAK1): 0.01 to 100 nM

SMILES: COC(=O)c1ccc(N(C)c2cc3c(cn2)ncn3C)c(C)c1 [Compound 27, Methyl 3-methyl-4-(methyl(1-methyl-1H-imidazo[4,5-c]pyridin-6-yl)amino)benzoate]
- IC50 (human JAK3): > 1000 nM
- IC50 [1, 2]: > 1000 nM
- IC50 (human JAK1): 101 to 500 nM

SMILES: CCc1cc(F)ccc1N(C)c1cc2c(cn1)ncn2C [Compound 28, N-(2-Ethyl-4-fluorophenyl)-N,1-dimethyl-1H-imidazo[4,5-c]pyridin-6-amine]
- IC50 (human JAK3): > 1000 nM
- IC50 [1, 2]: > 1000 nM
- IC50 (human JAK1): 0.01 to 100 nM

SMILES: Cc1cc(CO)ccc1N(C)c1cc2c(cn1)ncn2C [Compound 29, (3-Methyl-4-(methyl(1-methyl-1H-imidazo[4,5-c]pyridin-6-yl)amino)phenyl) MeOH]
- IC50 (human JAK3): > 1000 nM
- IC50 [1, 2]: > 1000 nM
- IC50 (human JAK1): 0.01 to 100 nM

SMILES: CNC(=O)c1ccc(N(C)c2cc3c(cn2)ncn3C)c(C)c1 [Compound 30, N,3-Dimethyl-4-(methyl(1-methyl-1H-imidazo[4,5-c]pyridin-6-yl)amino)-benzamide]
- IC50 (human JAK3): > 1000 nM
- IC50 [1, 2]: > 1000 nM
- IC50 (human JAK1): 101 to 500 nM

SMILES: Cc1cc(C#N)ccc1N(C)c1cc2c(cn1)ncn2C [Compound 31, 3-Methyl-4-(methyl(1-methyl-1H-imidazo[4,5-c]pyridin-6-yl)amino)benzonitrile]
- IC50 (human JAK3): > 1000 nM
- IC50 [1, 2]: > 1000 nM
- IC50 (human JAK1): 0.01 to 100 nM

SMILES: Cc1cc(C(N)=O)ccc1N(C)c1cc2c(cn1)ncn2C [Compound 32, 3-Methyl-4-(methyl(1-methyl-1H-imidazo[4,5-c]pyridin-6-yl)amino)benzamide]
- IC50 (human JAK3): > 1000 nM
- IC50 [1, 2]: > 1000 nM
- IC50 (human JAK1): 0.01 to 100 nM

SMILES: COc1ccc(COc2ccc(N(C)c3cc4c(cn3)ncn4C)c(C)c2)cc1 [Compound 33, N-(4-(4-Methoxybenzyloxy)-2-methylphenyl)-N,1-dimethyl-1H-imidazo[4,5-c]pyridin-6-amine]
- IC50 (human JAK3): > 1000 nM
- IC50 [1, 3]: > 1000 nM
- IC50 (human JAK1): 0.01 to 100 nM

SMILES: CCc1ccccc1N(CC)c1cc2c(cn1)ncn2C [Compound 34, N-Ethyl-N-(2-ethylphenyl)-1-methyl-1H-imidazo[4,5-c]pyridin-6-amine]
- IC50 (human JAK3): 501 to 1000 nM
- IC50 ([1]; Homo sapiens, HeLa): > 1000 nM
- IC50 (human JAK1): 0.01 to 100 nM

SMILES: CCc1ccccc1N(CC1CC1)c1cc2c(cn1)ncn2C [Compound 35, N-(cyclopropylmethyl)-N-(2-ethylphenyl)-1-methyl-1H-imidazo[4,5-c]pyridin-6-amine]
- IC50 (human JAK3): 501 to 1000 nM
- IC50 [1, 2]: > 1000 nM
- IC50 (human JAK1): 0.01 to 100 nM

SMILES: Cc1cc(O)ccc1N(C)c1cc2c(cn1)ncn2C [Compound 38, 3-Methyl-4-(methyl(1-methyl-1H-imidazo[4,5-c]pyridin-6-yl)amino)phenol]
- IC50 (human JAK3): 501 to 1000 nM
- IC50 [1, 2]: > 1000 nM
- IC50 (human JAK1): 0.01 to 100 nM

SMILES: CN(c1cc2c(cn1)ncn2C)c1ccccc1OC(F)F [Compound 39, N-(2-(difluoromethoxy)phenyl)-N,1-dimethyl-1H-imidazo[4,5-c]pyridin-6-amine]
- IC50 (human JAK3): 501 to 1000 nM
- IC50 [1, 2]: > 1000 nM
- IC50 (human JAK1): 0.01 to 100 nM

SMILES: COc1ccc(COc2ccc(C)c(N(C)c3cc4c(cn3)ncn4C)c2)cc1 [Compound 43, N-(5-(4-methoxybenzyloxy)-2-methylphenyl)-N,1-dimethyl-1H-imidazo[4,5-c]pyridin-6-amine]
- IC50 (human JAK3): > 1000 nM
- IC50 [1, 3]: > 1000 nM
- IC50 (human JAK1): 101 to 500 nM

SMILES: Cc1cc(OCC#N)ccc1N(C)c1cc2c(cn1)ncn2C [Compound 47, 2-(3-methyl-4-(methyl(1-methyl-1H-imidazo[4,5-c]pyridin-6-yl)amino)phenoxy)acetoni-trile]
- IC50 (human JAK3): 501 to 1000 nM
- IC50 [1, 2]: > 1000 nM
- IC50 (human JAK1): 0.01 to 100 nM

SMILES: Cc1cc(OCCCC#N)ccc1N(C)c1cc2c(cn1)ncn2C [Compound 48, 4-(3-methyl-4-(methyl(1-methyl-1H-imidazo[4,5-c]pyridin-6-yl)amino)phenoxy)butane nitrile]
- IC50 (human JAK3): > 1000 nM
- IC50 [1, 2]: > 1000 nM
- IC50 (human JAK1): 0.01 to 100 nM

SMILES: Cc1ccc(OCc2ccccc2)cc1N(C)c1cc2c(cn1)ncn2C [Compound 56, N-(5-(benzyloxy)-2-methylphenyl)-N,1-dimethyl-1H-imidazo[4,5-c]pyridin-6-amine]
- IC50 (human JAK3): > 1000 nM
- IC50 [1, 3]: > 1000 nM
- IC50 (human JAK1): 101 to 500 nM

SMILES: Cc1ccc(OCC#N)cc1N(C)c1cc2c(cn1)ncn2C [Compound 57, 2-(4-methyl-3-(methyl(1-methyl-1H-imidazo[4,5-c]pyridin-6-yl)amino)phenoxy)acetoni-trile]
- IC50 (human JAK3): 101 to 500 nM
- IC50 [1, 2]: > 1000 nM
- IC50 (human JAK1): 0.01 to 100 nM

SMILES: Cc1ccc(OCCCC#N)cc1N(C)c1cc2c(cn1)ncn2C [Compound 60, 4-(4-methyl-3-(methyl(1-methyl-1H-imidazo[4,5-c]pyridin-6-yl)amino)phenoxy)butane nitrile]
- IC50 (human JAK3): 101 to 500 nM
- IC50 [1, 2]: > 1000 nM
- IC50 (human JAK1): 0.01 to 100 nM

SMILES: Cc1ccc(OCc2cccnc2)cc1N(C)c1cc2c(cn1)ncn2C [Compound 61, N,1-dimethyl-N-(2-methyl-5-(pyridin-3-ylmethoxy)phenyl)-1H-imidazo[4,5-c]pyridin-6-amine]
- IC50 (human JAK3): > 1000 nM
- IC50 [1, 3]: > 1000 nM
- IC50 (human JAK1): 0.01 to 100 nM

SMILES: Cc1ccc(OCc2ccc(Cl)cc2)cc1N(C)c1cc2c(cn1)ncn2C [Compound 62, N-(5-(4-chlorobenzyloxy)-2-methylphenyl)-N,1-dimethyl-1H-imidazo[4,5-c]pyridin-6-amine]
- IC50 (human JAK3): > 1000 nM
- IC50 [1, 3]: > 1000 nM
- IC50 (human JAK1): 501 to 1000 nM

SMILES: Cc1ccc(OCC(C)C)cc1N(C)c1cc2c(cn1)ncn2C [Compound 63, N-(5-isobutoxy-2-methylphenyl)-N,1-dimethyl-1H-imidazo[4,5-c]pyridin-6-amine]
- IC50 (human JAK3): > 1000 nM
- IC50 [1, 2]: > 1000 nM
- IC50 (human JAK1): 101 to 500 nM

SMILES: Cc1c(OCC#N)cccc1N(C)c1cc2c(cn1)ncn2C [Compound 64, 2-(2-methyl-3-(methyl(1-methyl-1H-imidazo[4,5-c]pyridin-6-yl)amino)phenoxy)acetoni-trile]
- IC50 (human JAK3): 101 to 500 nM
- IC50 [1, 2]: > 1000 nM
- IC50 (human JAK1): 0.01 to 100 nM

SMILES: Cc1cc(-c2cn[nH]c2)ccc1N(C)c1cc2c(cn1)ncn2C [Compound 71, N,1-Dimethyl-N-(2-methyl-4-(1H-pyrazol-4-yl)phenyl)-1H-imidazo[4,5-c]pyridin-6-amine]
- IC50 (human JAK3): 501 to 1000 nM
- IC50 [1, 3]: > 1000 nM
- IC50 (human JAK1): 0.01 to 100 nM

SMILES: Cc1cc(-c2cncnc2)ccc1N(C)c1cc2c(cn1)ncn2C [Compound 72, N,1-dimethyl-N-(2-methyl-4-(pyrimidin-5-yl)phenyl)-1H-imidazo[4,5-c]pyridin-6-amine]
- IC50 (human JAK3): > 1000 nM
- IC50 [1, 2]: > 1000 nM
- IC50 (human JAK1): 101 to 500 nM

SMILES: Cc1cc(-c2cnn(C)c2)ccc1N(C)c1cc2c(cn1)ncn2C [Compound 73, N,1-dimethyl-N-(2-methyl-4-(1-methyl-1H-pyrazol-4-yl)phenyl)-1H-imidazo[4,5-c]pyridin-6-amine]
- IC50 (human JAK3): > 1000 nM
- IC50 [1, 3]: > 1000 nM
- IC50 (human JAK1): 0.01 to 100 nM
